Assay results published in patent publication US20120214862A1, “MODULATION OF FACTOR 7 EXPRESSION” (ISIS Pharmaceuticals, Inc., priority 2009, published 2012).
Like-named read-outs stand apart in the source and are kept apart here. In the oligonucleotide strings, read from the 5' end, every base follows the letter of its sugar. An asterisk marks phosphorothioate; unmarked linkages are phosphodiester. Other units and linkages are bracketed, terminal groups are in braces. A string of capitals states the bases alone. e = 2'-O-(2-methoxyethyl) (MOE); [5mC] = 5-methylcytosine; d = 2'-deoxy (DNA)

Key:
human Factor 7 mRNA [1] = assay: Dose-dependent antisense inhibition of human Factor 7 in HepB3 cells, transfection with lipofectin; format: cell-based; conditions: for percent inhibition of Factor 7 mRNA, relative to untreated control cells: lipofectin, HepB3 cells, 16 hours; for percent inhibition of Factor 7 mRNA, 3.125 nM / percent inhibition of Factor 7 mRNA, 6.25 nM / percent inhibition of Factor 7 mRNA, 12.5 nM / percent inhibition of Factor 7 mRNA, 25.0 nM / percent inhibition of Factor 7 mRNA, 50.0 nM / percent inhibition of Factor 7 mRNA, 100.0 nM: HepB3, lipofectin, ~16 h
Outline: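 HepB3 cells (4,000/well) lipofectin-transfected with antisense oligonucleotide at 3.125 or 6.25 up to 100 nM for ~16 h. Factor 7 mRNA measured by real-time RT-PCR with primer probe set RTS 2927, adjusted to RIBOGREEN total RNA; expressed as percent inhibition versus untreated control cells.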

human Factor 7 mRNA [2] = assay: Inhibition of human Factor 7 mRNA by 2-10-2 MOE shortmers in HepB3 cells, electroporation, 1,000 nM; format: cell-based; conditions: electroporation, 1,000 nM oligonucleotide, approximately 24 hours, relative to untreated control cells
Outline: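 14-mer 2-10-2 2′-MOE gapmers, full phosphorothioate, 5-methylcytidines, electroporated at 1,000 nM into HepB3 cells (20,000/well). After ~24 h, mRNA quantified by real-time RT-PCR, normalized to RIBOGREEN total RNA; percent inhibition relative to untreated cells.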

BALB/c mice = conditions: mouse, in vivo

| Substance | percent inhibition of Factor 7 mRNA, relative to untreated control cells (human Factor 7 mRNA [1]; 3.125 nM) [%] | percent inhibition of Factor 7 mRNA, relative to untreated control cells (human Factor 7 mRNA [1]; 12.5 nM) [%] | percent inhibition of Factor 7 mRNA, relative to untreated control cells (human Factor 7 mRNA [1]; 25 nM) [%] | percent inhibition of Factor 7 mRNA, relative to untreated control cells (human Factor 7 mRNA [1]; 50 nM) [%] | percent inhibition of Factor 7 mRNA, relative to untreated control cells (human Factor 7 mRNA [1]; 100 nM) [%] | percent inhibition of Factor 7 mRNA, 3.125 nM (human Factor 7 mRNA [1]; Example 2, 3.125 nM) [%] | percent inhibition of Factor 7 mRNA, 6.25 nM (human Factor 7 mRNA [1]; Example 2) [%] | percent inhibition of Factor 7 mRNA, 12.5 nM (human Factor 7 mRNA [1]; Example 2, 12.5 nM) [%] | percent inhibition of Factor 7 mRNA, 25.0 nM (human Factor 7 mRNA [1]; Example 2) [%] | percent inhibition of Factor 7 mRNA, 50.0 nM (human Factor 7 mRNA [1]; Example 2) [%] | percent inhibition of Factor 7 mRNA, 100.0 nM (human Factor 7 mRNA [1]; Example 2) [%] | percent inhibition of Factor 7 mRNA, 6.25 nM (human Factor 7 mRNA [1]; Example 5) [%] | percent inhibition of Factor 7 mRNA, 12.5 nM (human Factor 7 mRNA [1]; Example 5, 12.5 nM) [%] | percent inhibition of Factor 7 mRNA, 25.0 nM (human Factor 7 mRNA [1]; Example 5) [%] | percent inhibition of Factor 7 mRNA, 50.0 nM (human Factor 7 mRNA [1]; Example 5) [%] | percent inhibition of Factor 7 mRNA, 100.0 nM (human Factor 7 mRNA [1]; Example 5) [%] | percent inhibition of Factor 7 mRNA, relative to untreated control cells (human Factor 7 mRNA [1]) [%] | other results |
| --- | --- | --- | --- | --- | --- | --- | --- | --- | --- | --- | --- | --- | --- | --- | --- | --- | --- | --- |
| 407935 (antisense eA*eT*eG*e[5mC]*eA*dT*dG*dG*dT*dG*dA*dT*dG*d[5mC]*dT*eT*e[5mC]*eT*eG*eA) [compound 407935] | 19 | 58 | 70 | 85 | 87 | 57 | 76 | 78 | 89 | 90 | 89 | 38 | 53 | 70 | 82 | 86 | 39 | – |
| 407939 (antisense eT*eG*e[5mC]*eA*eG*d[5mC]*d[5mC]*d[5mC]*dG*dG*d[5mC]*dA*d[5mC]*d[5mC]*d[5mC]*eA*eG*e[5mC]*eG*eA) [compound 407939] | 17 | 57 | 75 | 80 | 83 | 62 | 79 | 83 | 91 | 92 | 92 | 37 | 57 | 77 | 84 | 87 | 35 | % inhibition of human Factor 7 mRNA (human Factor 7 mRNA [2]): 81% |
| CCATAGAACAGCTTCACAGG (sugars from the 5' end e5 d10 e5, backbone and methylation of C not given here) [ISIS 403102] | – | – | – | – | – | – | – | – | – | – | – | – | – | – | – | – | – | amount of bleeding in comparison to PBS treated mice (BALB/c mice): slight decrease in the amount of bleeding; bleeding as compared to PBS control mice (BALB/c mice): did not significantly affect bleeding; Blood (BALB/c mice; sc, 25 mg/kg): 0.06 g; Blood (BALB/c mice; sc, 37.5 mg/kg): 0.06 g; Blood (BALB/c mice; sc, 40 mg/kg): 0.10 g; bleeding compared to PBS treated mice (BALB/c mice; sc, 40 mg/kg): less bleeding than PBS treated mice; Blood (BALB/c mice; sc, 50 mg/kg): 0.10 g; amount of bleeding in comparison to PBS treated mice (BALB/c mice; sc, 50 mg/kg): Bleeding was the same |
